{"source": "patent US12622910B2", "about": "“Inhibitors of Bruton's tyrosine kinase and methods of their use” (Janssen Pharmaceutica NV, priority 2021, dated 2026)", "assay": "Phase 1 first-in-human study, safety (TEAEs)", "assay_type": "in vivo", "from_the_text": "Study Participants—Volunteers aged 18-58 years, with a body mass index (BMI) of 18-30 kg/m^2, body weight ≥50 kg, and who were considered healthy based on medical history, physical examination, clinical laboratory evaluation, and 12-lead electrocardiogram (ECG) were enrolled in this study. Females were required to be surgically sterile or postmenopausal. Key exclusion criteria were history of, or current, clinically significant medical illness and history of malignancy within 5 years.\nStudy Design—This phase 1, randomized, double-blind, placebo-controlled, single-center study (NCT03607513; EudraCT 2018-000428-32) was conducted between July 2018 and August 2019 at the Janssen Clinical Pharmacology Unit in Merksem, Belgium.The study comprised two distinct parts; Part 1 examined SAD of compound of Formula (III) and Part 2 assessed MAD of compound of Formula (III).\nSafety, tolerability, PK, and BTKO were assessed for six doses of compound of Formula (III) oral solution (4, 12, 36, 100, 200, 400 mg) in participants under fasted conditions. The SAD part comprised 10 cohorts of 8 participants each (FIG. 1). In each cohort receiving compound of Formula (III) oral solution (Cohorts 1-9), 6 participants were randomized to receive compound of Formula (III) and 2 to receive placebo. All participants in Cohort 10 received compound of Formula (III) as an oral capsule. All 10 cohorts included 2 sentinel participants who were dosed ˜24 hours prior to the rest of the cohort. In cohorts receiving compound of Formula (III) oral solution, 1 sentinel participant received compound of Formula (III) and the other received placebo.\nSix male escalating dose cohorts received a single oral dose of 4, 12, 36, 100, 200, 400 mg compound of Formula (III) or placebo solution under fasted conditions. Gender effects were assessed in 2 female cohorts whose participants received either a 36 or 100 mg dose of compound of Formula (III) or placebo as an oral solution under fasted conditions. Food effects were evaluated in a male cohort receiving compound of Formula (III) 100 mg or placebo as an oral solution after a high-fat breakfast.\nSafety, tolerability, and PK of a solid dose formulation of compound of Formula (III) were assessed in an additional male cohort (Cohort 10) that received 3×35 mg (105 mg) of compound of Formula (III) in the fasted state. Since all the participants received the same dose of compound of Formula (III), this cohort was not blinded.\nSafety, tolerability, PK, and BTKO following multiple compound of Formula (III) doses were evaluated in 3 dose escalation cohorts with a total of 18 participants (males: 9, females: 9) receiving active study drug. In each cohort, 3 males and 3 females were randomized to receive 36 mg once-daily (QD), 100 mg QD, or 200 mg QD compound of Formula (III) oral solution and 3 participants (males: 2; female: 1) to receive placebo. Two male participants in each cohort served as sentinel participants: one received compound of Formula (III) and other received placebo ˜48 hours prior to other participants in the cohort. All safety and tolerability data (through the follow-up visit), PK data (through at least 24 hours after last dose administration), and all available PD data were reviewed from each cohort before a decision was made to dose escalate.\nSafety—Safety evaluations were based upon the type, incidence, and severity of treatment-emergent adverse events (TEAEs) reported throughout the study, and concomitant medication reporting, clinical laboratory tests, physical examinations, vital sign measurements, and ECGs assessed at pre-defined time points. The TEAEs and serious TEAEs were coded using the Medical Dictionary for Regulatory Activities (MedDRA Version 21.0) and summarized by system-organ class (SOC) and preferred terms."}
{"smiles": "C=CC(=O)N[C@H]1CCC[C@H]1NC(=O)c1sc2nccc3c2c1NC(=O)N3c1cnc(CC(C)C)cc1C", "note": "(atropisomer, axis not shown) [compound of Formula (III), N-((1R,2S)-2-Acrylamidocyclopentyl)-5-(S)-(6-isobutyl-4-methylpyridin-3-yl)-4-oxo-4,5-dihydro-3H-1-thia-3,5,8-triazaacenaphthylene-2-carboxamide]", "values": [{"measurement": "Nasopharyngitis, n (%)", "setting": "Part 2, 100 mg", "value": 0}, {"measurement": "Nausea, n (%)", "setting": "Part 2, 100 mg", "value": 0}, {"measurement": "Oral dysaesthesia, n (%)", "setting": "Part 2, 100 mg", "value": 0}, {"measurement": "Oropharyngeal pain, n (%)", "setting": "Part 2, 100 mg", "value": 0}, {"measurement": "Paresthesia, n (%)", "setting": "Part 2, 100 mg", "value": 0}, {"measurement": "Patients with ≥1 TEAEs, n (%)", "setting": "Part 2, 100 mg", "value": "5 (83.3)"}, {"measurement": "Regurgitation, n (%)", "setting": "Part 2, 100 mg", "value": 0}, {"measurement": "Skin irritation, n (%)", "setting": "Part 2, 100 mg", "value": 0}, {"measurement": "Skin reaction, n (%)", "setting": "Part 2, 100 mg", "value": 0}, {"measurement": "Somnolence, n (%)", "setting": "Part 2, 100 mg", "value": "1 (16.7)"}, {"measurement": "Vertigo, n (%)", "setting": "Part 2, 100 mg", "value": 0}, {"measurement": "Vessel puncture site hematoma, n (%)", "setting": "Part 2, 100 mg", "value": "1 (16.7)"}, {"measurement": "Vision blurred, n (%)", "setting": "Part 2, 100 mg", "value": 0}, {"measurement": "Abdominal discomfort, n (%)", "setting": "Part 2, 200 mg", "value": 0}, {"measurement": "Abdominal pain, n (%)", "setting": "Part 2, 200 mg", "value": "1 (16.7)"}, {"measurement": "Abnormal dreams, n (%)", "setting": "Part 2, 200 mg", "value": 0}, {"measurement": "Administration site irritation, n (%)", "setting": "Part 2, 200 mg", "value": 0}, {"measurement": "Back pain, n (%)", "setting": "Part 2, 200 mg", "value": 0}, {"measurement": "Cough, n (%)", "setting": "Part 2, 200 mg", "value": 0}, {"measurement": "Dehydration, n (%)", "setting": "Part 2, 200 mg", "value": 0}, {"measurement": "Diarrhea, n (%)", "setting": "Part 2, 200 mg", "value": 0}, {"measurement": "Dizziness, n (%)", "setting": "Part 2, 200 mg", "value": "1 (16.7)"}, {"measurement": "Dysgeusia, n (%)", "setting": "Part 2, 200 mg", "value": 0}, {"measurement": "Fatigue, n (%)", "setting": "Part 2, 200 mg", "value": "1 (16.7)"}, {"measurement": "Flatulence, n (%)", "setting": "Part 2, 200 mg", "value": 0}, {"measurement": "Headache, n (%)", "setting": "Part 2, 200 mg", "value": "1 (16.7)"}, {"measurement": "Hot flush, n (%)", "setting": "Part 2, 200 mg", "value": "1 (16.7)"}, {"measurement": "Increased bronchial secretion, n (%)", "setting": "Part 2, 200 mg", "value": 0}, {"measurement": "Injection site hematoma, n (%)", "setting": "Part 2, 200 mg", "value": 0}, {"measurement": "Injection site reaction, n (%)", "setting": "Part 2, 200 mg", "value": 0}, {"measurement": "Lipase increased, n (%)", "setting": "Part 2, 200 mg", "value": 0}, {"measurement": "Myalgia, n (%)", "setting": "Part 2, 200 mg", "value": 0}, {"measurement": "Nasopharyngitis, n (%)", "setting": "Part 2, 200 mg", "value": 0}, {"measurement": "Nausea, n (%)", "setting": "Part 2, 200 mg", "value": 0}, {"measurement": "Oral dysaesthesia, n (%)", "setting": "Part 2, 200 mg", "value": 0}, {"measurement": "Oropharyngeal pain, n (%)", "setting": "Part 2, 200 mg", "value": 0}, {"measurement": "Paresthesia, n (%)", "setting": "Part 2, 200 mg", "value": 0}, {"measurement": "Patients with ≥1 TEAEs, n (%)", "setting": "Part 2, 200 mg", "value": "5 (83.3)"}, {"measurement": "Regurgitation, n (%)", "setting": "Part 2, 200 mg", "value": "1 (16.7)"}, {"measurement": "Skin irritation, n (%)", "setting": "Part 2, 200 mg", "value": 0}, {"measurement": "Skin reaction, n (%)", "setting": "Part 2, 200 mg", "value": "1 (16.7)"}, {"measurement": "Somnolence, n (%)", "setting": "Part 2, 200 mg", "value": 0}, {"measurement": "Vertigo, n (%)", "setting": "Part 2, 200 mg", "value": 0}, {"measurement": "Vessel puncture site hematoma, n (%)", "setting": "Part 2, 200 mg", "value": 0}, {"measurement": "Vision blurred, n (%)", "setting": "Part 2, 200 mg", "value": "1 (16.7)"}, {"measurement": "participants discontinued due to a TEAE (mild transaminases increased)", "setting": "Part 2, 200 mg group, after 8 days", "value": 1}, {"measurement": "abdominal discomfort, back pain, hot flush, paresthesia, regurgitation, skin reaction: incidence of each", "setting": "Part 2, all treated [2/18]", "value": 11.1, "unit": "%"}, {"measurement": "administration site irritation, incidence", "setting": "Part 2, all treated [3/18]", "value": 16.7, "unit": "%"}, {"measurement": "Abdominal discomfort, n (%)", "setting": "Part 2, total N = 18", "value": "2 (11.1)"}, {"measurement": "Abdominal pain, n (%)", "setting": "Part 2, total N = 18", "value": "1 (5.6)"}, {"measurement": "Abnormal dreams, n (%)", "setting": "Part 2, total N = 18", "value": 0}, {"measurement": "Administration site irritation, n (%)", "setting": "Part 2, total N = 18", "value": "3 (16.7)"}, {"measurement": "Back pain, n (%)", "setting": "Part 2, total N = 18", "value": "1 (16.7)"}, {"measurement": "Cough, n (%)", "setting": "Part 2, total N = 18", "value": 0}, {"measurement": "Dehydration, n (%)", "setting": "Part 2, total N = 18", "value": 0}, {"measurement": "Diarrhea, n (%)", "setting": "Part 2, total N = 18", "value": "1 (5.6)"}, {"measurement": "Dizziness, n (%)", "setting": "Part 2, total N = 18", "value": "1 (5.6)"}, {"measurement": "Dysgeusia, n (%)", "setting": "Part 2, total N = 18", "value": 0}, {"measurement": "Fatigue, n (%)", "setting": "Part 2, total N = 18", "value": "1 (5.6)"}, {"measurement": "Flatulence, n (%)", "setting": "Part 2, total N = 18", "value": "1 (5.6)"}, {"measurement": "Headache, n (%)", "setting": "Part 2, total N = 18", "value": "1 (5.6)"}, {"measurement": "Hot flush, n (%)", "setting": "Part 2, total N = 18", "value": "2 (11.1)"}, {"measurement": "Increased bronchial secretion, n (%)", "setting": "Part 2, total N = 18", "value": 0}, {"measurement": "Injection site hematoma, n (%)", "setting": "Part 2, total N = 18", "value": "2 (11.1)"}, {"measurement": "Injection site reaction, n (%)", "setting": "Part 2, total N = 18", "value": "2 (11.1)"}, {"measurement": "Lipase increased, n (%)", "setting": "Part 2, total N = 18", "value": 0}, {"measurement": "Myalgia, n (%)", "setting": "Part 2, total N = 18", "value": 0}, {"measurement": "Nasopharyngitis, n (%)", "setting": "Part 2, total N = 18", "value": 0}, {"measurement": "Nausea, n (%)", "setting": "Part 2, total N = 18", "value": 0}, {"measurement": "Oropharyngeal pain, n (%)", "setting": "Part 2, total N = 18", "value": 0}, {"measurement": "Paresthesia, n (%)", "setting": "Part 2, total N = 18", "value": "2 (11.1)"}, {"measurement": "Regurgitation, n (%)", "setting": "Part 2, total N = 18", "value": "2 (11.1)"}, {"measurement": "Skin irritation, n (%)", "setting": "Part 2, total N = 18", "value": 0}, {"measurement": "Skin reaction, n (%)", "setting": "Part 2, total N = 18", "value": "2 (11.1)"}, {"measurement": "Somnolence, n (%)", "setting": "Part 2, total N = 18", "value": "1 (5.6)"}, {"measurement": "Vertigo, n (%)", "setting": "Part 2, total N = 18", "value": 0}, {"measurement": "Vessel puncture site hematoma, n (%)", "setting": "Part 2, total N = 18", "value": "1 (5.6)"}, {"measurement": "Vision blurred, n (%)", "setting": "Part 2, total N = 18", "value": "1 (5.6)"}, {"measurement": "serious TEAEs", "setting": "Parts 1 and 2", "value": "No serious TEAEs"}, {"measurement": "severity of TEAEs", "setting": "Parts 1 and 2", "value": "mild to moderate"}]}
